This passage reports IC50 results from patent US11731986B2 (Sanford Burnham Prebys Medical Discovery Institute, priority 2017, dated 2023).

In this assay the target is T1, human LMPTP-A (Homo sapiens, UniProt P24666).
T1 sequence (P24666 1-158): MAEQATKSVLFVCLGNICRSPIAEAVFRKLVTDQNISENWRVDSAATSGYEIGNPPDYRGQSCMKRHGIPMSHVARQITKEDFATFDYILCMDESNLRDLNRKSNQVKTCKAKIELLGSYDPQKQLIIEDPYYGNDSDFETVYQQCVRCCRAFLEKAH
The experiment in a line: Enzyme Assay of Inhibition of LMPTP-A (phosphatase assay, OMFP or pNPP substrate). Type of assay: biochemical. The settings on record: Bis-Tris pH 6.0, 37° C. On the procedure:
Phosphatase assays were performed in buffer containing 50 mM Bis-Tris, pH 6.0, 1 mM DTT and 0.01% Triton X-100 at 37° C. For assays conducted with 3-O-methylfluorescein phosphate (OMFP) as substrate, fluorescence was monitored continuously at λex=485 and λem=525 nm. For assays conducted with para-nitrophenylphosphate (pNPP) as substrate, the reaction was stopped by addition of 2× reaction volume of 1 M NaOH, and absorbance was measured at 405 nm. IC50 values of compounds of Formula (I), (II), (III), or (IV) were determined from plots of inhibitor concentration versus percentage of enzyme activity. For inhibitor selectivity assays, each PTP was incubated with either 0.4 mM OMFP or 5 mM pNPP in the presence of 40 μM compound or DMSO. […] For the inhibitor reversibility assay, 50 nM human LMPTP-A was pre-incubated with 10 μM of compound of Formula (I), (II), (III), or (IV) or DMSO for 5 min. The enzyme was diluted 100× in phosphatase assay buffer containing 0.4 mM OMFP and fluorescence was measured at the indicated time points.

A word on the IC50: it is the midpoint of a concentration-inhibition curve. A high value points to a need for much substance.

Where only a bound is given, the exact number is not on record here.

Regarding `NC1CCN(C(=O)CCc2ccc(-c3cc(NCCCN4CCCCC4)c4cnccc4n3)cc2)CC1`, the IC50 was not above 1 µM. `O=C(NCCc1ccncc1)c1cc2ccc(-c3cc(NCCCN4CCCCC4)c4cnccc4n3)cc2[nH]1` gave an IC50 not above 1 µM. With `CCNC1CCN(C(=O)CCc2ccc(-c3cc(NCCCN4CCCCC4)c4cnccc4n3)cc2)CC1`, the IC50 was not above 1 µM. Under `CN1CCCC(CCNC(=O)C#Cc2ccc(-c3cc(NCCCN4CCCCC4)c4cnccc4n3)cc2)CC1` (stereo not shown) stands 1 to 20 µM.

The molecule `CCN(CC)C(=O)CNC(=O)CCc1ccc(-c2cc(NCCCN3CCCCC3)c3cnccc3n2)cc1` showed an IC50 not above 1 µM. For `CN1CCC(N/C(=N\O)c2ccc(-c3cc(NCCCN4CCCCC4)c4cnccc4n3)cc2)CC1`, the IC50 lay within 1 to 20 µM.

As for `O=C(c1nc2cc(-c3cc(NCCCN4CCCCC4)c4cnccc4n3)ccc2[nH]1)N1CCNCC1`, the IC50 is not above 1 µM. Molecule `CN1CCC(Nc2cc(-c3ccc4c(c3)cc(C(=O)NCCCN3CCCCC3)n4C)nc3ccncc23)CC1` [1-Methyl-5-(4-((1-methylpiperidin-4-yl)amino)-1,6-naphthyridin-2-yl)-N-(3-(piperidin-1-yl)propyl)-1H-indole-2-carboxamide] gave an IC50 of 1 to 20 µM.

`CN1CCC(CNC(=O)c2cc3cc(-c4cc(NC5CCN(C)CC5)c5cnccc5n4)ccc3n2C)CC1` [1-Methyl-5-(4-((1-methylpiperidin-4-yl)amino)-1,6-naphthyridin-2-yl)-N-((1-methylpiperidin-4-yl)methyl)-1H-indole-2-carboxamide] gave a concentration for half-maximal inhibition (IC50) not above 1 µM.

In turn, `CC(CCN1CCCCC1)Nc1cc(-c2ccc3c(c2)cc(C(=O)NC2CCN(C)CC2)n3C)nc2ccncc12` (stereo not shown) [1-Methyl-N-(1-methylpiperidin-4-yl)-5-(4-(4-(piperidin-1-yl)butan-2-ylamino)-1,6-naphthyridin-2-yl)-1H-indole-2-carboxamide] yielded an IC50 of 1 to 20 µM. Regarding `CN1CCC(NC(=O)c2cc3cc(-c4cc(NC5CCN(C)CC5)c5cnccc5n4)ccc3n2C)CC1` [1-Methyl-N-(1-methylpiperidin-4-yl)-5-(4-((1-methylpiperidin-4-yl)amino)-1,6-naphthyridin-2-yl)-1H-indole-2-carboxamide], the IC50 was not above 1 µM.

In the case of `Cn1c(C(=O)NC2CCSCC2)cc2cc(-c3cc(NCCCN4CCCCC4)c4cnccc4n3)ccc21` [1-methyl-5-(4-(3-(piperidin-1-yl)propylamino)-1,6-naphthyridin-2-yl)-N-(tetrahydro-2H-thiopyran-4-yl)-1H-indole-2-carboxamide], the IC50 was not above 1 µM. In turn, `Cn1c(C(=O)NC2CCNCC2)cc2cc(-c3cc(NCc4ccc(CN5CCCCC5)cc4)c4cnccc4n3)ccc21` [1-methyl-5-(4-(4-(piperidin-1-ylmethyl)benzylamino)-1,6-naphthyridin-2-yl)-N-(piperidin-4-yl)-1H-indole-2-carboxamide] gave an IC50 not above 1 µM. In turn, `Cn1c(C(N)=O)cc2nc(-c3cc(NCCCN4CCCCC4)c4cnccc4n3)ccc21` [1-methyl-5-(4-((3-(piperidin-1-yl)propyl)amino)-1,6-naphthyridin-2-yl)-1H-pyrrolo[3,2-b]pyridine-2-carboxamide] had an IC50 of 1 to 20 µM. Under `Cn1c(C(=O)NCCc2ccncc2)cc2cc(-c3cc(NCCCN4CCCCC4)c4cnccc4n3)ccc21` [1-methyl-5-(4-((3-(piperidin-1-yl)propyl)amino)-1,6-naphthyridin-2-yl)-N-(2-(pyridin-4-yl)ethyl)-1H-indole-2-carboxamide] stands not above 1 µM; under `Cn1c(C(=O)NC2CCNCC2)cc2cc(-c3cc(NCCCN4CCCCC4)c4cnccc4n3)ccc21` [1-methyl-5-(4-((3-(piperidin-1-yl)propyl)amino)-1,6-naphthyridin-2-yl)-N-(piperidin-4-yl)-1H-indole-2-carboxamide], not above 1 µM; under `Cn1c(C(=O)NC2CCOCC2)cc2cc(-c3cc(NCCCN4CCCCC4)c4cnccc4n3)ccc21` [1-methyl-5-(4-((3-(piperidin-1-yl)propyl)amino)-1,6-naphthyridin-2-yl)-N-(tetrahydro-2H-pyran-4-yl)-1H-indole-2-carboxamide], not above 1 µM. `CN1CCC(NC(=O)c2cc3cc(-c4cc(N(C)CCCN5CCCCC5)c5cnccc5n4)ccc3n2C)CC1` [1-methyl-5-(4-(methyl(3-(piperidin-1-yl)propyl)amino)-1,6-naphthyridin-2-yl)-N-(1-methylpiperidin-4-yl)-1H-indole-2-carboxamide] returned an IC50 of 1 to 20 µM. Consider `CNc1cc(-c2ccc3c(c2)cc(C(N)=O)n3C)nc2ccncc12` [1-methyl-5-(4-(methylamino)-1,6-naphthyridin-2-yl)-1H-indole-2-carboxamide], for which the IC50 fell in the range of 1 to 20 µM. Under `CNc1cc(-c2ccc3c(c2)cc(C(=O)NC2CCN(C)CC2)n3C)nc2ccncc12` [1-methyl-5-(4-(methylamino)-1,6-naphthyridin-2-yl)-N-(1-methylpiperidin-4-yl)-1H-indole-2-carboxamide] stands 1 to 20 µM; under `CN1CCC(NC(=O)c2cc3cc(-c4cc(OCCCN5CCCCC5)c5cnccc5n4)ccc3n2C)CC1` [1-methyl-N-(1-methylpiperidin-4-yl)-5-(4-(3-(piperidin-1-yl)propoxy)-1,6-naphthyridin-2-yl)-1H-indole-2-carboxamide], 1 to 20 µM. Next, `CN1CCC(NC(=O)c2cc3cc(-c4cc(NCc5ccc(CN6CCCCC6)cc5)c5cnccc5n4)ccc3n2C)CC1` [1-methyl-N-(1-methylpiperidin-4-yl)-5-(4-(4-(piperidin-1-ylmethyl)benzylamino)-1,6-naphthyridin-2-yl)-1H-indole-2-carboxamide]: not above 1 µM; `CN1CCC(NC(=O)c2cc3cc(-c4cc(NCCCN5CCCCC5)c5cnccc5n4)ccc3n2C)CC1` [1-methyl-N-(1-methylpiperidin-4-yl)-5-(4-((3-(piperidin-1-yl)propyl)amino)-1,6-naphthyridin-2-yl)-1H-indole-2-carboxamide]: not above 1 µM.

`CN1CCC(NC(=O)c2cc3cc(-c4cc(Nc5ccc(CN6CCCC6)cc5)c5cnccc5n4)ccc3n2C)CC1` [1-methyl-N-(1-methylpiperidin-4-yl)-5-(4-((4-(pyrrolidin-1-ylmethyl)phenyl)amino)-1,6-naphthyridin-2-yl)-1H-indole-2-carboxamide] showed an IC50 not above 1 µM. Under `CCCNc1cc(-c2ccc3c(c2)cc(C(=O)NC2CCN(C)CC2)n3C)nc2ccncc12` [1-methyl-N-(1-methylpiperidin-4-yl)-5-(4-(propylamino)-1,6-naphthyridin-2-yl)-1H-indole-2-carboxamide] stands not above 1 µM; under `CN1CCN(CCCNC(=O)c2cc3cc(-c4cc(NCCCN5CCCCC5)c5cnccc5n4)ccc3n2C)CC1` [1-methyl-N-(3-(4-methylpiperazin-1-yl)propyl)-5-(4-((3-(piperidin-1-yl)propyl)amino)-1,6-naphthyridin-2-yl)-1H-indole-2-carboxamide], not above 1 µM.

Molecule `CN1CCC(CNC(=O)c2cc3cc(-c4cc(NCc5ccc(CN6CCCCC6)cc5)c5cnccc5n4)ccc3n2C)CC1` [1-methyl-N-((1-methylpiperidin-4-yl)methyl)-5-(4-(4-(piperidin-1-ylmethyl)benzylamino)-1,6-naphthyridin-2-yl)-1H-indole-2-carboxamide] displayed an IC50 not above 1 µM. Next, `O=C(COCc1ccc(-c2cc(NCCCN3CCCCC3)c3cnccc3n2)cc1)NCC1CCNCC1` [2-(4-(4-(3-(piperidin-1-yl)propylamino)-1,6-naphthyridin-2-yl)benzyloxy)-N-(piperidin-4-ylmethyl)acetamide]: not above 1 µM. With `CCN1CCC(CNC(=O)CCOc2ccc(-c3cc(N(CC)CCCN4CCCCC4)c4cnccc4n3)cc2)CC1` [3-(4-(4-(ethyl(3-(piperidin-1-yl)propyl)amino)-1,6-naphthyridin-2-yl)phenoxy)-N-((1-ethylpiperidin-4-yl)methyl)propanamide], the IC50 is not below 20 µM.

`CCN(CC)C(=O)c1ccc(-c2cc(NCCCN3CCCCC3)c3cnccc3n2)c(C#N)c1` [3-cyano-N,N-diethyl-4-(4-((3-(piperidin-1-yl)propyl)amino)-1,6-naphthyridin-2-yl)benzamide] gave an IC50 of 1 to 20 µM. Consider `CN1CCC(NC(=O)c2ccc(-c3cc(NCCCN4CCCCC4)c4cnccc4n3)c(C#N)c2)CC1` [3-cyano-N-(1-methylpiperidin-4-yl)-4-(4-((3-(piperidin-1-yl)propyl)amino)-1,6-naphthyridin-2-yl)benzamide], for which the IC50 fell in the range of 1 to 20 µM. `CCN(CC)C(=O)c1ccc(-c2cc(Nc3ccc(CN(C)C)cc3)c3cnccc3n2)cc1` [4-(4-(4-((Dimethylamino)methyl)phenylamino)-1,6-naphthyridin-2-yl)-N,N-diethylbenzamide] yielded an IC50 of 1 to 20 µM. In turn, `CCN(CC)C(=O)c1ccc(-c2cc(Nc3ccc(N(C)C)cc3)c3cnccc3n2)cc1` [4-(4-(4-(Dimethylamino)phenylamino)-1,6-naphthyridin-2-yl)-N,N-diethylbenzamide] came in with an IC50 of 1 to 20 µM.

`CN1CCC(Nc2cc(-c3ccc(C(=O)NCCCN4CCCCC4)cc3)nc3ccncc23)C1` (stereo not shown) [4-(4-((1-Methylpyrrolidin-3-yl)amino)-1,6-naphthyridin-2-yl)-N-(3-(piperidin-1-yl)propyl)benzamide] showed an IC50 of 1 to 20 µM.
